For 13 compounds, Ki results are on record in BindingDB's records for doi:10.1016/s0960-894x(00)00026-3 (Universit&#224, 2000).

pKi: −log10 of the molar value.

Test [1] can be described thus: Inhibition of Clostridium histolyticum collagenase (ChC) using a linear regression program.
Test [2] is described as follows: Inhibition of Clostridium histolyticum collagenase using a linear regression program.

For `CC(C(=O)NO)N(Cc1ccc([N+](=O)[O-])cc1)S(=O)(=O)c1ccc([N+](=O)[O-])c(Cl)c1` (stereo not drawn) [2-[(3-Chloro-4-nitro-benzenesulfonyl)-(4-nitro-benzyl)-amino]-N-hydroxy-propionamide], the pKi (in general, the Ki on a negative log10 scale, so that one unit is a factor of ten) in test [1] was 5.05.
In test [2], `Cc1ccc(S(=O)(=O)NC(=O)N(Cc2ccc([N+](=O)[O-])cc2)C(C)C(=O)NO)cc1` (stereo not drawn) [N-hydroxy-2-[({[(4-methylphenyl)sulfonyl]amino}carbonyl)(4-nitrobenzyl)amino]propanamide] had a pKi of 4.92.
With `CC(C(=O)NO)N(Cc1ccc([N+](=O)[O-])cc1)S(=O)(=O)c1cccc([N+](=O)[O-])c1` (stereo not drawn) [N-Hydroxy-2-[(3-nitro-benzenesulfonyl)-(4-nitro-benzyl)-amino]-propionamide], the pKi in test [2] is 4.92.
`CC(C(=O)NO)N(Cc1ccc([N+](=O)[O-])cc1)S(=O)(=O)C(F)(F)C(F)(F)C(F)(F)C(F)(F)F` (stereo not drawn) [2-(N-(4-nitrobenzyl)-2,2,12,12,15,15,18,18,18-nonafluorobutan-2-ylsulfonamido)-N-hydroxypropanamide] showed a pKi in test [2] of 4.96.
The compound `CC(C(=O)NO)N(Cc1ccc([N+](=O)[O-])cc1)S(=O)(=O)c1ccc(NC(=O)OC(C)(C)C)cc1` (stereo not drawn) [{4-[(1-Hydroxycarbamoyl-ethyl)-(4-nitro-benzyl)-sulfamoyl]-phenyl}-carbamic acid tert-butyl ester] gave a pKi in test [2] of 5.00.
Same read-out and setting: then `CC(C(=O)O)N(Cc1ccc([N+](=O)[O-])cc1)S(=O)(=O)c1cccc(C(=O)O)c1` (stereo not drawn) [3-[(1-Carboxy-ethyl)-(4-nitro-benzyl)-sulfamoyl]-benzoic acid], with 5.70; and `CC(C(=O)NO)N(Cc1ccc([N+](=O)[O-])cc1)S(=O)(=O)c1ccc([N+](=O)[O-])cc1` (stereo not drawn) [N-Hydroxy-2-[(4-nitro-benzenesulfonyl)-(4-nitro-benzyl)-amino]-propionamide], with 5.00.
The compound `CC(C(=O)NO)N(Cc1ccc([N+](=O)[O-])cc1)S(C)(=O)=O` (stereo not drawn) [N-Hydroxy-2-[methanesulfonyl-(4-nitro-benzyl)-amino]-propionamide] showed a pKi in test [2] of 4.12.
`CC(C(=O)NO)N(Cc1ccc([N+](=O)[O-])cc1)S(=O)(=O)c1ccccc1` (stereo not drawn) [2-[Benzenesulfonyl-(4-nitro-benzyl)-amino]-N-hydroxy-propionamide] had a pKi in test [2] of 4.27.
Turning to `CC(C(=O)NO)N(Cc1ccc([N+](=O)[O-])cc1)S(=O)(=O)c1cc(Cl)cc(Cl)c1O` (stereo not drawn) [2-[(3,5-Dichloro-2-hydroxy-benzenesulfonyl)-(4-nitro-benzyl)-amino]-N-hydroxy-propionamide], the pKi in test [2] is 4.92. Against the preceding compound, the pKi is 0.65 log units higher.
As for `CC(=O)Nc1ccc(S(=O)(=O)N(Cc2ccc([N+](=O)[O-])cc2)C(C)C(=O)O)cc1` (stereo not drawn) [2-[(4-Acetylamino-benzenesulfonyl)-(4-nitro-benzyl)-amino]-propionic acid], the pKi in test [2] is 5.51.
The compound `CC(C(=O)NO)N(Cc1ccc([N+](=O)[O-])cc1)S(=O)(=O)C(Cl)(Cl)Cl` (stereo not drawn) [N-Hydroxy-2-[(4-nitro-benzyl)-trichloromethanesulfonyl-amino]-propionamide] showed a pKi in test [2] of 4.28. Compared with the last compound, the pKi is 1.23 log units lower.
Consider `Cc1cc(C)c(S(=O)(=O)N(Cc2ccc([N+](=O)[O-])cc2)C(C)C(=O)O)c(C)c1` (stereo not drawn) [2-[(4-Nitro-benzyl)-(2,4,6-trimethyl-benzenesulfonyl)-amino]-propionic acid], for which, in test [2], the pKi is 5.22. Against the preceding compound, the pKi is 0.94 log units higher.
